According to PMC10096391, “Discovery of N,4-Di(1H-pyrazol-4-yl)pyrimidin-2-amine-Derived CDK2 Inhibitors as Potential Anticancer Agents: Design, Synthesis, and Evaluation” (Molecules, 2023):

Key:
CDK2/cyclin E (CDK2E) = CDK2/cyclin E (CDK2E) (Homo sapiens, UniProt P24941); test: ADP-Glo kinase assay, CDK2/cyclin E; type: biochemical; conditions: apparent Ki from IC50, ADP-Glo
Experimental: (§1) The luminescent ADP-Glo™ assay, which measures the amount of ADP formed in a kinase reaction as described previously, was used to determine the kinase inhibition profile of the compounds. […] Ki values were calculated from their corresponding IC50 values (the concentrations of inhibitors that inhibit the kinase activity by 50%) and the Michaelis–Menten constant (Km) of ATP for each kinase using the Cheng–Prusoff equation as previously stated. In brief, 1 μL of each concentration of the test compounds was added to the respective wells, and to it were added 1 μL of the kinases and their respective substrates, diluted to the desired concentration in kinase reaction buffer ([…] tris base pH 7.5, 20 mM MgCl2, 0.4 µM dithiothreitol, and 0.1 mg/mL bovine serum albumin), and the pH was adjusted by adding 1 μL of a two-fold diluted kinase reaction buffer. To initiate the kinase activity, 1 μL of ATP solution (the concentration varies depending on the type of kinase under investigation) was added to each well, and the mixture was incubated at room temperature (20 to 22 °C) for 30–60 min depending on the kinase being tested. The reaction was then halted, 5 μL of the ADP-Glo reagent was added to each well (removing any unreacted ATP), and it was incubated at room temperature for 40 min. Then, to each well, 10 μL of the kinase detection reagent containing luciferin was added, which was incubated once more at room temperature in the dark for 30 min and the luminescence was measured by an EnVision® multi-label plate reader with an integration time of 1.5 s per well. Positive controls (the wells without the inhibitor) and negative or blank controls (the wells without the inhibitor and the enzyme, but with 1 × kinase reaction buffer) were also determined in 2.5% DMSO.
(§2) The percentage of kinase inhibition was determined using the following equation: % Residual kinase activity=Luminescence in the presence of inhibitor−Luminescence of blank control/Luminescence in the absence of inhibitor−Luminescence of blank control×100%%kinase inhbition=100%−%Residual kinase activity
(§3) Km is defined as the concentration of ATP or the substrate required to produce 50% of the maximal reaction rate in the kinase reaction. Therefore, since we used the concentration of ATP and the substrate at their Km values, Ki simply equals IC50/2 assuming these inhibitors are ATP-competitive based on the Cheng–Prusoff equation: Ki = IC50/(1 + ([ATP]/Km(ATP))) where [ATP] is the ATP concentration used for the IC50 determination and Km(ATP) for each kinase was determined experimentally.

OVCAR5 cells = test: Cell cycle analysis by flow cytometry, OVCAR5; type: cell-based; conditions: 48 h
Experimental: The effect of the compounds on cell cycle distribution was evaluated following a previously reported method. Briefly, six-well plates (Sigma-Aldrich, NSW, Australia) were seeded with about 1–2 × 10^5 cells/well in 2 mL growth medium, incubated at 37 °C and 5% CO2 overnight, and treated with various concentrations of the test compounds and incubated for 48 h. The wells were collected by trypsinization, transferred into fluorescence-activating cell sorting (FACS) tubes, washed with 1 × phosphate-buffered saline (1 × PBS) twice, fixed in 70% (v/v) ice-cold ethanol for 15 min, and centrifuged at 300× g for 5 min. The cell pellets were then collected, stained with 200 µL of the cell cycle solution (comprising 50.0 μg/mL PI, 0.1 mg/mL RNase A, and 0.05% Triton X-100), and incubated for 1.5 h at room temperature in the dark. Finally, the DNA content was determined by a flow cytometer (CytoFLEX) and analyzed by CytExpert 2.1 software (Beckman Coulter, Brea, CA, USA).

[1] = system: OVCAR5 ovarian cancer cells; test: Cell viability assay (MTT/resazurin), OVCAR5; type: cell-based; conditions: Homo sapiens, OVCAR-5, read-out: Antiproliferative Activity, GI50
Description: (§4) Cancer cell lines derived from leukemia (MV4-11 and U937), breast (MCF7 (Rb-positive) and MDA-MB-231(Rb-negative)), and ovarian (A2780, OVCAR5, OAW28, OV90, Cov318, and Cov504) cancers, and glioblastoma (U87, T98G and U251) were acquired from the cell bank at Drug Discovery and Development, University of South Australia, and cultured according to the American Type Culture Collection (ATCC) recommendation in Roswell Park Memorial Institute (RPMI)-1640, Dulbecco’s Modified Eagle’s Medium (DMEM), or Minimum Essential Media (MEM), with 10% fetal bovine serum (Sigma-Aldrich, Castle Hill, NSW, Australia) within a humidified incubator at 37 °C in the presence of 5% CO2.
(§5) The MTT (Life Technologies, Mulgrave, VIC, Australia) and resazurin (Sigma-Aldrich) assays were used to determine the antiproliferative activities of the compounds initially at 1 µM against the cancer cell lines stated above.

[2] = system: OAW28 ovarian cancer cells; test: Cell viability assay (MTT/resazurin), OAW28; type: cell-based; conditions: Homo sapiens, OAW-28, read-out: Antiproliferative Activity, GI50
Description: as §4, §5

[3] = system: Cov504 ovarian cancer cells; test: Cell viability assay (MTT/resazurin), Cov504; type: cell-based; conditions: read-out: Antiproliferative Activity, GI50
Description: as §4, §5

MV4-11 leukemia cells = test: Cell viability assay (MTT/resazurin), MV4-11; type: cell-based; conditions: Homo sapiens, read-out: Antiproliferative Activity, GI50
Description: as §4, §5

A2780 cells = test: Annexin V/PI apoptosis assay, A2780; type: cell-based; conditions: 48 h
Experimental: Annexin V-fluorescein isothiocyanate (FITC) apoptosis detection kit I (consisting of a ten-time stock solution of binding buffer, FITC–annexin V, and PI staining solution) was used to determine the effect of the compounds on cancer cell survival as previously reported. Briefly, six-well plates (Sigma-Aldrich, NSW, Australia) were seeded with about 1–2 × 10^5 cells/well in 2 mL growth medium, incubated at 37 °C and 5% CO2 overnight, treated with various concentrations of the test compounds, and incubated for 48 h. The wells were collected by trypsinization, transferred into FACS tubes, washed twice with 1 × PBS, and centrifuged at 300× g for 5 min. The pellets were then suspended in 100 µL of 1 × binding buffer and incubated in the dark with 3 µL of PI and 3 µL of FITC-conjugated annexin V solutions for 15 min. Finally, 200 µL of binding buffer was added to each sample and analyzed by the CytoFLEX cytometer. The extent of apoptotic cell death was quantified as the sum of the percentages of early apoptotic cells (annexin V-positive and PI-negative) and late apoptotic cells (both annexin–V- and PI-positive) and presented graphically as a contour diagram relative to the untreated control.

[4] = system: MDA-MB-231 breast cancer cells; test: Cell viability assay (MTT/resazurin), MDA-MB-231; type: cell-based; conditions: Homo sapiens, read-out: Antiproliferative Activity, GI50
Description: as §4, §5

CDK1/cyclin B (CDK1B) = CDK1/cyclin B (CDK1B) (Homo sapiens, UniProt P06493); test: ADP-Glo kinase assay, CDK1/cyclin B; type: biochemical; conditions: apparent Ki from IC50, ADP-Glo
Experimental: as §1, §2, §3

[5] = system: A2780 ovarian cancer cells; test: 72 h MTT antiproliferative assay, A2780; type: cell-based; conditions: Homo sapiens, A2780; 72 h MTT
Description: as §4, §5

Chain of CDK1/cyclin B (CDK1B) (P06493 whole entry): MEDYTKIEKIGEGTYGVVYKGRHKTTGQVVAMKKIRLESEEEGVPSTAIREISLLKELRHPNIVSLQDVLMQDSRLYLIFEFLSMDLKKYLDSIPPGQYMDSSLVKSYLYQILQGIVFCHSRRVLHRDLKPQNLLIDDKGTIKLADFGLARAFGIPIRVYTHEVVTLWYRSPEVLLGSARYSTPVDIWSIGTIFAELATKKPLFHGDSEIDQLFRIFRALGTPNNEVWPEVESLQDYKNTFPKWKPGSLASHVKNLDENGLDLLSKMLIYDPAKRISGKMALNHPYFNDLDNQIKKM
Chain of CDK1/cyclin B (CDK1B) (P14635 whole entry partner): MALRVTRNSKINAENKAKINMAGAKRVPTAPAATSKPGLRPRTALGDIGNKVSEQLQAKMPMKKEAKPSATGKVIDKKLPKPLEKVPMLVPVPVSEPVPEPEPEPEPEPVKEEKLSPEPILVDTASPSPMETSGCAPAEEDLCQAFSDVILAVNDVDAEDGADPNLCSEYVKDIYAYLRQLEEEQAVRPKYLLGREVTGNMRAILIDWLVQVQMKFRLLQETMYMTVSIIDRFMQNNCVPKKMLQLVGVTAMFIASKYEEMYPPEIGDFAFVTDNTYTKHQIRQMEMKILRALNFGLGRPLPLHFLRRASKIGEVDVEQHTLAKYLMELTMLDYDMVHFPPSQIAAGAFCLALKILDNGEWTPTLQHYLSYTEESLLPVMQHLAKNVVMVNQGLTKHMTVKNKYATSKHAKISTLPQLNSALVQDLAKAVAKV

Ki (CDK2/cyclin E (CDK2E)): 5 nM
GI50 [1]: 150 nM
GI50 [2]: 534 nM
GI50 [3]: 540 nM
GI50 (MV4-11 leukemia cells): 127 nM
GI50 [4]: 458 nM
Ki (CDK1/cyclin B (CDK1B)): 25 nM
GI50 [5]: 158 nM
Structure (SMILES): Cn1cc(-c2nc(Nc3cn[nH]c3)ncc2Cl)cn1 [Compound 15, 5-Chloro-4-(1-methyl-1H-pyrazol-4-yl)-N-(1H-pyrazol-4-yl)pyrimidin-2-amine]
increment in the subpopulation of G2/M cells compared to the vehicle control (OVCAR5 cells; OVCAR5, 0.5 µM): 39%
G2/M cells (OVCAR5 cells; OVCAR5, 2 µM): 53%
S-phase cells (OVCAR5 cells; OVCAR5, 2 µM): 26%
apoptosis (annexin V positive, early + late) (A2780 cells; A2780, 0.5 µM): 47%
apoptosis (annexin V positive, early + late) (A2780 cells; A2780, 2 µM): 49%
viability at 0.5 µM (A2780 cells; Homo sapiens, A2780, 0.5 µM, read-out: Q1-LL, viable cells): 52.7%
viability at 2 µM (A2780 cells; Homo sapiens, A2780, 2 µM, read-out: Q1-LL, viable cells): 50.5%
